{"source": "paper PMC2919811", "about": "(Analytical biochemistry, 2010)", "key": {"[1]": {"molecular_target": "T1, OATP2B1 (Homo sapiens, UniProt O94956)", "T1 sequence (O94956 1-709)": "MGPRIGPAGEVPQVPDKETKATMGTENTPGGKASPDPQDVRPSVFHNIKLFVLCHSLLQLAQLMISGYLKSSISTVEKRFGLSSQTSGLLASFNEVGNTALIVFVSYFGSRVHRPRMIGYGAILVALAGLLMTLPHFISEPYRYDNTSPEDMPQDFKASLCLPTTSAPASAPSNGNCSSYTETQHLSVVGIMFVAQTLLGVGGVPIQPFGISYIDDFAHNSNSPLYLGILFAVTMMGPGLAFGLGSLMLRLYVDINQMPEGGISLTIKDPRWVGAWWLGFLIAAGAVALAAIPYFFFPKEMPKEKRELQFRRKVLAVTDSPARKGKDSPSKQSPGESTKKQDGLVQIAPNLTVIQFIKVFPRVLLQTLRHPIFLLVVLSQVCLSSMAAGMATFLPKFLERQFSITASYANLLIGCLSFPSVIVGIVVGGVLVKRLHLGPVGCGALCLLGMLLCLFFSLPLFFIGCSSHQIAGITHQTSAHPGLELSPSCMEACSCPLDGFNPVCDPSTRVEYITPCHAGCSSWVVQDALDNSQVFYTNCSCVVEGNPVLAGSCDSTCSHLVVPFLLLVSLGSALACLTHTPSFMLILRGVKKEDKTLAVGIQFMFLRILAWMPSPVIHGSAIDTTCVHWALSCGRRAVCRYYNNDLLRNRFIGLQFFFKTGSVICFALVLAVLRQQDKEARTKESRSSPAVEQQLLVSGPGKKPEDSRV", "assay": "Substrate uptake in CHO cells stably expressing OATP2B1", "assay_type": "cell-based", "settings": "2 μM substrate, five minute accumulation, CHOvector = 1"}, "[2]": {"molecular_target": "T2, OCT2 (Homo sapiens, UniProt O15244)", "T2 sequence (O15244 1-555)": "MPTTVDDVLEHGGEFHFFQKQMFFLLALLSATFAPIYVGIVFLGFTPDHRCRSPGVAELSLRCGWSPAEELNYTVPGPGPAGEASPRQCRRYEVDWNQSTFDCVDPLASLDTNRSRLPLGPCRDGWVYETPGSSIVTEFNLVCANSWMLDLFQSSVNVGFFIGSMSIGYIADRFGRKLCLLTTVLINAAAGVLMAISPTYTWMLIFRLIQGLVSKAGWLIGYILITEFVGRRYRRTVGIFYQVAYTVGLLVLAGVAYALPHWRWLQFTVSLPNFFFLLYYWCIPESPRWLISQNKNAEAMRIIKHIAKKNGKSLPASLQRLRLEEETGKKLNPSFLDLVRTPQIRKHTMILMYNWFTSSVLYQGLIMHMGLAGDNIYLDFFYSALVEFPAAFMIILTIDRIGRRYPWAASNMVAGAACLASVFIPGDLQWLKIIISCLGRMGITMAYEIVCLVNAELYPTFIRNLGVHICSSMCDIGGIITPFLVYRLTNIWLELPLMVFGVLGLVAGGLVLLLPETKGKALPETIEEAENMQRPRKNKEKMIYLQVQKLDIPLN", "assay": "Cellular accumulation in CHO cells transiently transfected with OCT2", "assay_type": "cell-based", "settings": "10 μM 8-FcA, 20 minutes"}, "[3]": {"molecular_target": "T3, OAT1 (Homo sapiens, UniProt Q4U2R8)", "T3 sequence (Q4U2R8 1-563)": "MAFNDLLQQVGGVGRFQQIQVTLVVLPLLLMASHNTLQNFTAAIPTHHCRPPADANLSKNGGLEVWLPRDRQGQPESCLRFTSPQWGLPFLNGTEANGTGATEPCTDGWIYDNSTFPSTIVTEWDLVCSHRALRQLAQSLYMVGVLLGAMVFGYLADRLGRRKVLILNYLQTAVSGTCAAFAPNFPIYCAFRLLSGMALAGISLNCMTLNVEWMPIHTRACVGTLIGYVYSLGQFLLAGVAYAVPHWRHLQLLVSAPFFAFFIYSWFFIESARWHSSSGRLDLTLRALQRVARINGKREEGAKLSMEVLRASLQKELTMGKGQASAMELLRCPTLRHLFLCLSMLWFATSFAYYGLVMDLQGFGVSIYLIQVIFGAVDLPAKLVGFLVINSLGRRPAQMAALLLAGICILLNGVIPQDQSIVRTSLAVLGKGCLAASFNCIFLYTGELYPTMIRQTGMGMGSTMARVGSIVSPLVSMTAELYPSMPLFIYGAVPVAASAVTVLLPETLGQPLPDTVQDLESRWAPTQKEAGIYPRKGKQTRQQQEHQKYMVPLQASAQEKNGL", "assay": "Cellular accumulation in CHO cells transiently transfected with OAT1", "assay_type": "cell-based", "settings": "10 μM 8-FcA, 20 minutes"}, "[4]": {"molecular_target": "T4, NTCP (Homo sapiens, UniProt Q14973)", "T4 sequence (Q14973 1-349)": "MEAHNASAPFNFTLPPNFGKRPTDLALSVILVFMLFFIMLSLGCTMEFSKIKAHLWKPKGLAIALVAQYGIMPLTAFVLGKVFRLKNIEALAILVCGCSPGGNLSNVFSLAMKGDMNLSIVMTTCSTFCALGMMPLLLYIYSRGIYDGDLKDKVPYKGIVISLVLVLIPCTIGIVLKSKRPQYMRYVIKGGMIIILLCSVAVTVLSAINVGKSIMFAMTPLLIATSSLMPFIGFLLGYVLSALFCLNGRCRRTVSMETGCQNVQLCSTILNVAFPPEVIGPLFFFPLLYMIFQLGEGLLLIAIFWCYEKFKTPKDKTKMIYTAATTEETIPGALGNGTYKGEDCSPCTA", "assay": "Cellular accumulation in CHO cells transiently transfected with NTCP", "assay_type": "cell-based", "settings": "10 μM 8-FcA, 20 minutes"}, "[5]": {"molecular_target": "OATP1B1 (Homo sapiens, UniProt Q9Y6L6)", "sequence (Q9Y6L6 whole entry)": "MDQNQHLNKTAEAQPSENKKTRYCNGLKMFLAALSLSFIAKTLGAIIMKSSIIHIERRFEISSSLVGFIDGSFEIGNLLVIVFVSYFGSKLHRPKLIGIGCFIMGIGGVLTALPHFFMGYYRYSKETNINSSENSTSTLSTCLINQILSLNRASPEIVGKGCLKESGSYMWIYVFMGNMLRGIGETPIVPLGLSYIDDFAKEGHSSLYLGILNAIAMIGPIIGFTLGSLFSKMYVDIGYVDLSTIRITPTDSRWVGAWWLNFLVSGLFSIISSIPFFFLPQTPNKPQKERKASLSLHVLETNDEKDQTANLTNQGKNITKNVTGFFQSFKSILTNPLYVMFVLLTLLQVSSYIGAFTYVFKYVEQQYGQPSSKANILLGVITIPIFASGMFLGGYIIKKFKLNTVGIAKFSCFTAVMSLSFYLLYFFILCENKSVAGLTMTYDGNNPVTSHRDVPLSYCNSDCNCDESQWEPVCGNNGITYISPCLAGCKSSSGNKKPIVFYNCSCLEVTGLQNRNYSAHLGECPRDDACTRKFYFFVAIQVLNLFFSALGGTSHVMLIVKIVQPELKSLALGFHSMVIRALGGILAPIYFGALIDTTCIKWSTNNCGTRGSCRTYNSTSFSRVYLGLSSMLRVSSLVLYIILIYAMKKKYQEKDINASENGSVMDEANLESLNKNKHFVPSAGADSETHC", "settings": "10 μM 8-FcA, 20 minutes"}}}
{"compound": "Nc1ncnc2c1nc(SCCNC(=S)Nc1ccc(-c3c4ccc(=O)cc-4oc4cc(O)ccc34)c(C(=O)O)c1)n2[C@@H]1O[C@@H]2COP(=O)(O)O[C@H]2[C@H]1O", "note": "[8-FcA, 8-(2-[Fluoresceinyl]aminoethylthio) adenosine-3', 5'-cyclic monophosphate]", "values": [{"measurement": "cellular accumulation relative to control, CHOOATP2B1", "setting": "[1]", "value": "not statistically different from that of CHOvector"}, {"measurement": "cellular accumulation by fluorescence microscopy, OCT2", "setting": "[2]", "value": "negative"}, {"measurement": "cellular accumulation by fluorescence microscopy, OAT1", "setting": "[3]", "value": "modest accumulation"}, {"measurement": "cellular accumulation by fluorescence microscopy, NTCP", "setting": "[4]", "value": "negative"}, {"measurement": "cellular accumulation by fluorescence microscopy, OATP1B1", "setting": "[5]", "value": "readily accumulated"}]}
